Laboratory results from patent US20060281771A1, “SYNERGISTIC MODULATION OF FLT3 KINASE USING AMINOQUINOLINE AND AMINOQUINAZOLINE KINASE MODULATORS” (priority 2005, published 2006).

What was measured:
[1] = biological target: T1, wild-type FLT3 phosphorylation in Baf3 FLT3 cells (Homo sapiens, UniProt P36888); assay: Cell-based FLT3 receptor ELISA; details: FLT ligand-induced FLT3 phosphorylation
T1 construct: host or cells: Baf3 (murine B cell lymphoma line)
T1 sequence (P36888 27-993): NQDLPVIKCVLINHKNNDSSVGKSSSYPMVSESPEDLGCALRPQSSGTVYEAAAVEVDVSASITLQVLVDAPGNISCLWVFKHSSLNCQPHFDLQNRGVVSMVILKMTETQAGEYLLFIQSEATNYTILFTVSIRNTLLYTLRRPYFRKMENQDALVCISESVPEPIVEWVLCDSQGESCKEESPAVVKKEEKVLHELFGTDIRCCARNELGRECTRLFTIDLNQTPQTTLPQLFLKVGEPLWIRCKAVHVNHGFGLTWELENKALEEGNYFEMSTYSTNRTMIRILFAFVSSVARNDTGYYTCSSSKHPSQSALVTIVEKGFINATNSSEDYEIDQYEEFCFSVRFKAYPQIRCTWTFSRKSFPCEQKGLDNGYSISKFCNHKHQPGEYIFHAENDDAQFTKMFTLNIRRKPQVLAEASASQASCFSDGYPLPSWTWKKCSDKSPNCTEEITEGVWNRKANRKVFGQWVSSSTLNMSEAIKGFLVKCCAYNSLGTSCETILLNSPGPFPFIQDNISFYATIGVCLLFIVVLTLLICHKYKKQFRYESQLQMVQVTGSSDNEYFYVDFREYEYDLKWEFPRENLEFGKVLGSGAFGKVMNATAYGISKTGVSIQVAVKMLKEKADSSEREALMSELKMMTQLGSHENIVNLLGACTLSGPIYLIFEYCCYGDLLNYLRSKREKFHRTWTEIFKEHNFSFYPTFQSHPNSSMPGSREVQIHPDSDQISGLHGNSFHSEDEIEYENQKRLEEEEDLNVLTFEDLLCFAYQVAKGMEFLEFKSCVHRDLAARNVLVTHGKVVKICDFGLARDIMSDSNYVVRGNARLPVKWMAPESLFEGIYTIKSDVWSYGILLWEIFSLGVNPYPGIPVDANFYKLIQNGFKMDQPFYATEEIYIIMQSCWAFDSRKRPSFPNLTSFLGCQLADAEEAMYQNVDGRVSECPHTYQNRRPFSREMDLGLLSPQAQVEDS
Description: Specific cellular inhibition of FLT ligand-induced wild-type FLT3 phosphorylation was measured in the following manner: Baf3 FLT3 cells overexpressing the FLT3 receptor were obtained from Dr. Michael Heinrich (Oregon Health and Sciences University). The Baf3 FLT3 cell lines were created by stable transfection of parental Baf3 cells (a murine B cell lymphoma line dependent on the cytokine IL-3 for growth) with wild-type FLT3. Cells were selected for their ability to grow in the absence of IL-3 and in the presence of FLT3 ligand.
Baf3 cells were maintained in RPMI 1640 with 10% FBS, penn/strep and 10 ng/ml FLT ligand at 37° C., 5% CO2. To measure direct inhibition of the wild-type FLT3 receptor activity and phosphorylation a sandwich ELISA method was developed similar to those developed for other RTKs (see Sadick, M D, Sliwkowski, M X, Nuijens, A, Bald, L, Chiang, N, Lofgren, J A, Wong W L T. Analysis of Heregulin-Induced ErbB2 Phosphorylation with a High-Throughput Kinase Receptor Activation Enzyme-Linked Immunsorbent Assay, Analytical Biochemistry. 1996; 235:207-214 and Baumann C A, Zeng L, Donatelli R R, Maroney A C. Development of a quantitative, high-throughput cell-based enzyme-linked immunosorbent assay for detection of colony-stimulating factor-1 receptor tyrosine kinase inhibitors. J Biochem Biophys Methods. 2004; 60:69-79.). 200 μL of Baf3FLT3 cells (1×10^6/mL) were plated in 96 well dishes in RPMI 1640 with 0.5% serum and 0.01 ng/mL IL-3 for 16 hours prior to 1 hour compound or DMSO vehicle incubation. Cells were treated with 100 ng/mL Flt ligand (R&D Systems Cat# 308-FK) for 10 min. at 37° C. Cells were pelleted, washed and lysed in 100 ul lysis buffer (50 mM Hepes, 150 mM NaCl, 10% Glycerol, 1% Triton-X-100, 10 mM NaF, 1 mM EDTA, 1.5 mM MgCl2, 10 mM NaPyrophosphate) supplemented with phosphatase (Sigma Cat# P2850) and protease inhibitors (Sigma Cat #P8340). Lysates were cleared by centrifugation at 1000×g for 5 minutes at 4° C. Cell lysates were transferred to white wall 96 well microtiter (Costar #9018) plates coated with 50 ng/well anti-FLT3 antibody (Santa Cruz Cat# sc-480) and blocked with SeaBlock reagent (Pierce Cat#37527). Lysates were incubated at 4° C. for 2 hours. Plates were washed 3× with 200 ul/well PBS/0.1% Triton-X-100. Plates were then incubated with 1:8000 dilution of HRP-conjugated anti-phosphotyrosine antibody (Clone 4G10, Upstate Biotechnology Cat#16-105) for 1 hour at room temperature. Plates were washed 3× with 200 ul/well PBS/0.1% Triton-X-100. Signal detection with Super Signal Pico reagent (Pierce Cat#37070) was done according to manufacturer's instruction with a Berthold microplate luminometer. All data points are an average of triplicate samples. […] Inhibition and IC50 data analysis was done with GraphPad Prism using a non-linear regression fit with a multiparamater, sigmoidal dose-response (variable slope) equation.

MV4-11 cells = assay: Inhibition of MV4-11 cell proliferation (CellTiterGlo, 72 h); type: cell-based; details: Homo sapiens; 72 h growth inhibition
Description: To assess the cellular potency of the FLT3 inhibitors of Formula I′, FLT3 specific growth inhibition was measured in the leukemic cell line MV4-11 (ATCC Number: CRL-9591). […] MV4-11 cells cannot grow and survive without active FLT3ITD.
To measure proliferation inhibition by test compounds, the luciferase based CellTiterGlo reagent (Promega), which quantifies total cell number based on total cellular ATP concentration, was used. Cells are plated at 10,000 cells per well in 100 ul of in RPMI media containing penn/strep, 10% FBS and 1 ng/ml GM-CSF or 1 ng/ml IL-3 for MV4-11 and Baf3 cells respectively.
Compound dilutions or 0.1% DMSO (vehicle control) are added to cells and the cells are allowed to grow for 72 hours at standard cell growth conditions (37° C., 5% CO2). For activity measurements in MV4-11 cells grown in 50% plasma, cells were plated at 10,000 cells per well in a 1:1 mixture of growth media and human plasma (final volume of 100 μL). To measure total cell growth an equal volume of CellTiterGlo reagent was added to each well, according to the manufacturer's instructions, and luminescence was quantified. Total cell growth was quantified as the difference in luminescent counts (relative light units, RLU) of cell number at Day 0 compared to total cell number at Day 3 (72 hours of growth and/or compound treatment). One hundred percent inhibition of growth is defined as an RLU equivalent to the Day 0 reading. Zero percent inhibition was defined as the RLU signal for the DMSO vehicle control at Day 3 of growth. All data points are an average of triplicate samples. […] Inhibition and IC50 data analysis was done with GraphPad Prism using a non-linear regression fit with a multiparamater, sigmoidal dose-response (variable slope) equation.
MV4-11 cells express the FLT3 internal tandem duplication mutation, and thus are entirely dependent upon FLT3 activity for growth. […] In contrast, the Baf3 cell proliferation is driven by the cytokine IL-3 and thus are used as a non-specific toxicity control for test compounds.

Compound	IC50 [1] [nM]	IC50 (MV4-11 cells) [nM]
COc1cc2ncnc(N3CCC(COC(=O)Nc4ccc(C(C)C)cc4)CC3)c2cc1OC [Compound 22, (4-Isopropyl-phenyl)-carbamic acid 1-(6,7-dimethoxy-quinazolin-4-yl)-piperidin-4-ylmethyl ester]	82	1700
CC(C)c1ccc(NC(=O)NC2CCN(c3ncnc4cc(F)ccc34)C2)cc1 (stereo not drawn) [Compound 69, 1-[1-(7-Fluoro-quinazolin-4-yl)-pyrrolidin-3-yl]-3-(4-isopropyl-phenyl)-urea]	< 1	128
CC(C)c1ccc(NC(=O)NC2CCN(c3ncnc4cc(F)ccc34)CC2)cc1 [Compound 72, 1-[1-(7-Fluoro-quinazolin-4-yl)-piperidin-4-yl]-3-(4-isopropyl-phenyl)-urea]	30	245
CC(C)c1ccc(NC(=O)NC2CCN(c3ncnc4cc(OCCN5CCCC5=O)ccc34)CC2)cc1 [Compound 74, 1-(4-Isopropyl-phenyl)-3-(1-{7-[2-(2-oxo-pyrrolidin-1-yl)-ethoxy]-quinazolin-4-yl}-piperidin-4-yl)-urea]	4	177
COc1cc2ncnc(N3CCC(NC(=O)Nc4ccc(N(C)C)cc4)C3)c2cc1OC (stereo not drawn) [Compound 52, 1-[1-(6,7-Dimethoxy-quinazolin-4-yl)-pyrrolidin-3-yl]-3-(4-dimethylamino-phenyl)-urea]	6600	830
COc1cc2ncnc(N3CCC(NC(=O)Nc4ccc(OC5CCCC5)cc4)CC3)c2cc1OC [Compound 67, 1-(4-Cyclopentyloxy-phenyl)-3-[1-(6,7-dimethoxy-quinazolin-4-yl)-piperidin-4-yl]-urea]	1400	470
COCCOc1ccc2c(N3CCC(NC(=O)Nc4ccc(C(C)C)cc4)C3)ncnc2c1 (stereo not drawn) [Compound 71, 1-(4-Isopropyl-phenyl)-3-{1-[7-(2-methoxy-ethoxy)-quinazolin-4-yl]-pyrrolidin-3-yl}-urea]	1	1
CC(C)c1ccc(NC(=O)NC2CCN(c3ncnc4ccccc34)CC2)cc1 [Compound 63, 1-(4-Isopropyl-phenyl)-3-(1-quinazolin-4-yl-piperidin-4-yl)-urea]	20	502
COc1cc2ncnc(N3CCC(NC(=O)Nc4ccc(N5CCOCC5)cc4)CC3)c2cc1OC [Compound 59, 1-[1-(6,7-Dimethoxy-quinazolin-4-yl)-piperidin-4-yl]-3-(4-morpholin-4-yl-phenyl)-urea]	43	410
COc1cc2ncnc(N3CCC(NC(=O)Nc4ccc(N5CCCC5)cc4)CC3)c2cc1OC [Compound 60, 1-[1-(6,7-Dimethoxy-quinazolin-4-yl)-piperidin-4-yl]-3-(4-pyrrolidin-1-yl-phenyl)-urea]	18	528
COc1cc2ncnc(N3CCC(NC(=O)Nc4ccc(OC(C)C)cc4)CC3)c2cc1OC [Compound 58, 1-[1-(6,7-Dimethoxy-quinazolin-4-yl)-piperidin-4-yl]-3-(4-isopropoxy-phenyl)-urea]	180	7
COc1cc2ncnc(N3CCCC(COC(=O)Nc4ccc(OC5CCCC5)cc4)C3)c2cc1OC (stereo not drawn) [Compound 57, (4-Cyclopentyloxy-phenyl)-carbamic acid 1-(6,7-dimethoxy-quinazolin-4-yl)-piperidin-3-ylmethyl ester]	46	172
CC(C)c1ccc(NC(=O)NC2CCN(c3ncnc4cc(OCCN5CCCC5=O)ccc34)C2)cc1 (stereo not drawn) [Compound 70, 1-(4-Isopropyl-phenyl)-3-(1-{7-[2-(2-oxo-pyrrolidin-1-yl)-ethoxy]-quinazolin-4-yl}-pyrrolidin-3-yl)-urea]	80	21
COCCOc1ccc2c(N3CCC(NC(=O)Nc4ccc(C(C)C)cc4)CC3)ncnc2c1 [Compound 73, 1-(4-Isopropyl-phenyl)-3-{1-[7-(2-methoxy-ethoxy)-quinazolin-4-yl]-piperidin-4-yl}-urea]	109	208
COc1ccc2c(N3CCC(NC(=O)Nc4ccc(C(C)C)cc4)CC3)ncnc2c1 [Compound 65, 1-(4-Isopropyl-phenyl)-3-[1-(7-methoxy-quinazolin-4-yl)-piperidin-4-yl]-urea]	178	321
